Reference: patent publication US20250215010A1, “DIAZABICYCLOOCTANE DERIVATIVES USEFUL AS MATRIX METALLOPROTEINASE INHIBITORS” (VASA THERAPEUTICS SPOLKA Z OGRANICZONA ODPOWIEDZIALNOSCIA, priority 2022, published 2025)
Read-outs that look alike come from different tables or passages of the source.

How the values were obtained:
Type in all cases: biochemical
MMP1 = biological target: T1, MMP1 (Homo sapiens, UniProt P03956); assay: MMP-1 colorimetric inhibition assay (Enzo kit BML-AK404); conditions: thiopeptide substrate, absorbance 415 nm; read-out: MMP 1 IC50 class
T1 sequence (P03956 100-269 limits assumed): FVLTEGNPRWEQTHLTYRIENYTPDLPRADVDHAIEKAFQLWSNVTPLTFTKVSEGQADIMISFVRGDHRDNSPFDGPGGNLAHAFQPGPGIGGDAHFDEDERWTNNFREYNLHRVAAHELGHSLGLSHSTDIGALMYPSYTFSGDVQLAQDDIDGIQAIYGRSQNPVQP
Outline: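 Colorimetric kit run per manufacturer protocol. MMP-1 cleaves a thiopeptide substrate (Ac-PLG-[2-mercapto-4-methylpentanoyl]-LG-OC2H5); released thiol reacts with DTNB, monitored at 415 nm. IC50 (nM) from inhibition curves of normalized values.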

MMP2 = biological target: T2, MMP2 (Homo sapiens, UniProt P08253); assay: MMP-2 colorimetric inhibition assay (Enzo kit BML-AK408); conditions: thiopeptide substrate, absorbance 415 nm; read-out: MMP 2 IC50 class
T2 sequence (P08253 110-660): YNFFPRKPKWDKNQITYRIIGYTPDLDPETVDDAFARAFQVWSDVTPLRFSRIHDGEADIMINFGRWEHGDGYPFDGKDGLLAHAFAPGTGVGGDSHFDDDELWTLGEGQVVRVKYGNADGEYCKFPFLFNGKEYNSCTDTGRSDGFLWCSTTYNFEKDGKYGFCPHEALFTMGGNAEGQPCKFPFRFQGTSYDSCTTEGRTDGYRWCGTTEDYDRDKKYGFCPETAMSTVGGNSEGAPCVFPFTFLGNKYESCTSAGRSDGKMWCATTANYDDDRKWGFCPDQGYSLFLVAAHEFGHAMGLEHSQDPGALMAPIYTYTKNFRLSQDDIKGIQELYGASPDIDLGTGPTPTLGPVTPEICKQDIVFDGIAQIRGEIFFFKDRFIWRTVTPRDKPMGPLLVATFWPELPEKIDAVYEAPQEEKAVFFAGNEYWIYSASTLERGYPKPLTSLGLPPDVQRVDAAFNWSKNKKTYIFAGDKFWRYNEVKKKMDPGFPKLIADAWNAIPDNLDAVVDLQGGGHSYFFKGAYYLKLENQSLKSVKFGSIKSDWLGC
Outline: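 Cleavage of the thiopeptide Ac-PLG-[2-mercapto-4-methylpentanoyl]-LG-OC2H5 releases a sulfhydryl that reacts with DTNB, read at 415 nm per the kit protocol. IC50 values (nM) come from inhibition curves of normalized data.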

MMP9 = MMP9 (Homo sapiens, UniProt P14780); assay: MMP-9 colorimetric inhibition assay (Enzo kit BML-AK410); conditions: thiopeptide substrate, absorbance 415 nm; read-out: MMP 9 IC50 class
Outline: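 Colorimetric thioester-substrate assay: hydrolysis of Ac-PLG-[2-mercapto-4-methylpentanoyl]-LG-OC2H5 frees a thiol that reacts with DTNB, read at 415 nm. Run per kit protocol. IC50 (nM) taken from inhibition curves of normalized values.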

MMP13 = biological target: T3, MMP13 (Homo sapiens, UniProt P45452); assay: MMP-13 colorimetric inhibition assay (Enzo kit BML-AK412); conditions: thiopeptide substrate, absorbance 415 nm; read-out: MMP 13 IC50 class
T3 construct: purchased Enzo Life Sciences, Inc. BML-AK412
Outline: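 Thiopeptide chromogenic substrate (Ac-PLG-[2-mercapto-4-methylpentanoyl]-LG-OC2H5); MMP-13 hydrolysis of the thioester yields a thiol that reacts with DTNB, read at 415 nm. IC50 values (nM) derived from inhibition curves of normalized data.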

ADAM17 (TACE) = ADAM17 (TACE) (Homo sapiens, UniProt P78536); assay: TACE fluorometric inhibition assay (Enzo kit BML-AK310); conditions: quenched fluorogenic peptide, ex/em 320/420 nm; read-out: TACE IC50 class
Outline: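 Kit-based TACE assay run per manufacturer's protocol, using quenched fluorogenic peptide Mca-PLAQAV-Dpa-RSSSR-NH2 whose cleavage raises Mca fluorescence. Signal read at ex/em 320/420 nm; IC50 (nM) derived from inhibition curves of normalized values.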

ADAM10 = biological target: T4, ADAM10 (Homo sapiens, UniProt O14672); assay: SensoLyte 520 ADAM10 fluorometric activity assay (AnaSpec AS-72226)
T4 construct: purchased AnaSpec, Inc. AS-72226
T4 sequence (O14672 214-748): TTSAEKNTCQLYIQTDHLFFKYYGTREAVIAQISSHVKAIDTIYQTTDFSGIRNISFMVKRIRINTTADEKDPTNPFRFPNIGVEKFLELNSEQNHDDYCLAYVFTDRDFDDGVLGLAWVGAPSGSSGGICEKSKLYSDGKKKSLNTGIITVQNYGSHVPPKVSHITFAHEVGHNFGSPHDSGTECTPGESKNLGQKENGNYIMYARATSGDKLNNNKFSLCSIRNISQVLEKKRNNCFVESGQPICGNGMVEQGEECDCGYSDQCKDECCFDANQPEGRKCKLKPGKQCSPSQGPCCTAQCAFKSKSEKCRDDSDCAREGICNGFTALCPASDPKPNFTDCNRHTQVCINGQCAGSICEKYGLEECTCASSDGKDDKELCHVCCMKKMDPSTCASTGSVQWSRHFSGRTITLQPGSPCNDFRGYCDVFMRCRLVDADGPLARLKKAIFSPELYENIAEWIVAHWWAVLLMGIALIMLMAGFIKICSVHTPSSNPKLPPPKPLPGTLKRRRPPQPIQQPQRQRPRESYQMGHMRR
Method: The inhibitory activities of the compounds of the invention were assessed in 96-well microplate format using MMP1, MMP2, MMP9 and MMP13 colorimetric assay kits and TACE fluorometric assay kit from Enzo Life Sciences, Inc. The inhibitory effect of the compounds of the invention on ADAM10 activity were evaluated in 96-well microplate format using fluorometric assay from AnaSpec, Inc.
SensoLyte® 520 ADAM10 Activity Assay Kit (catalog #AS-72226) is a complete assay system designed to screen ADAM10 inhibitors using FRET-based peptide substrate containing the 5-FAM/QXL™ 520 fluorophore/quencher pair. The fluorescence of 5-FAM is quenched by QXL™ 520 and recovered upon cleavage of the peptide by active ADAM10.
The inhibitory activity of the compounds of the invention against ADAM10 was tested according to the manufacturer's assay protocol and the fluorescence was monitored at excitation/emission wavelengths=495 nm/520 nm using Tecan Infinite® 200 Pro F Nano^+ microplate reader.
The normalized values were analyzed using GraphPadPrism 9 for Windows (GraphPad Software, San Diego, CA, USA) software by plotting inhibition curves and determining the IC50 values (in nM).

[1] = FRET peptide substrate, ex/em 495/520 nm, read-out: ADAM 10 IC50 class

Sequence of ADAM17 (TACE) (P78536 215-477 limits assumed): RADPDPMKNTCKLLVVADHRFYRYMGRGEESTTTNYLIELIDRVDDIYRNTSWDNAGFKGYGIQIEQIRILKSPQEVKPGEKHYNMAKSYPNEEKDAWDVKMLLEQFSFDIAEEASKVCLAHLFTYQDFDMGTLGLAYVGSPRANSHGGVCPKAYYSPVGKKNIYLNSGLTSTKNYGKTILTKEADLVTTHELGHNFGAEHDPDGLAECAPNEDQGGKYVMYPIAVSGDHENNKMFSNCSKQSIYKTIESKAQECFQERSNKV
Sequence of MMP9 (P14780 94-707): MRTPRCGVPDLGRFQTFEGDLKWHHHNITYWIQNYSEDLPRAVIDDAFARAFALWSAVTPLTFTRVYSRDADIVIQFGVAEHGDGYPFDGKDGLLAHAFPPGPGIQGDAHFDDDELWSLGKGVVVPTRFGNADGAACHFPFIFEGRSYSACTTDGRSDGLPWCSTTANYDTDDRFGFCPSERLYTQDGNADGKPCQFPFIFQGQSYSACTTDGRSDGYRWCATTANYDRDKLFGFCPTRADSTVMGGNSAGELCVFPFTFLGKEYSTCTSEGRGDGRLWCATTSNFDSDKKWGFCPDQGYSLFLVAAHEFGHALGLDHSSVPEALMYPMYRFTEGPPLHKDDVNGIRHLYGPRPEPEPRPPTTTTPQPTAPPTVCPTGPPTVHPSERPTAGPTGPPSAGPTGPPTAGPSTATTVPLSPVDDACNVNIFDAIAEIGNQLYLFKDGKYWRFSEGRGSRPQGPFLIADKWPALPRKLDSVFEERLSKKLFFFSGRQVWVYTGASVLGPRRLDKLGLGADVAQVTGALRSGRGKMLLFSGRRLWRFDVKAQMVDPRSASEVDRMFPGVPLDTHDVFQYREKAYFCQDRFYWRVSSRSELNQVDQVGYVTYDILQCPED

Row | SMILES | IC50 (MMP1) [nM] | IC50 (MMP2) [nM] | IC50 (MMP9) [nM] | IC50 (MMP13) [nM] | IC50 (ADAM17 (TACE)) [nM] | IC50 (ADAM10; [1]) [nM] | IC50 (ADAM10) [nM]
1 | COCCOC(=O)N1[C@@H]2CC[C@H]1[C@H](C(=O)NO)N(S(=O)(=O)c1ccc(Oc3ccc(OCC(F)(F)F)cc3)nc1)C2 [Example 25, 2-methoxyethyl (1S,2R,5R)-2-(hydroxycarbamoyl)-3-((6-(4-(2,2,2-trifluoroethoxy)-phenoxy)pyridin-3-yl)sulfonyl)-3,8-diazabicyclo[3.2.1]-octane-8-carboxylate] | 1000 to 10000 | < 50 | < 50 | < 50 | > 10000 | > 10000 | 
2 | CC(C)OC(=O)N1[C@@H]2CC[C@H]1[C@H](C(=O)NO)N(S(=O)(=O)c1ccc(Oc3ccc(F)cc3)nc1)C2 [Example 67, isopropyl (1S,2R,5R)-3-((6-(4-fluorophenoxy)-pyridin-3-yl)-sulfonyl)-2-(hydroxycarbamoyl)-3,8-diazabicyclo-[3.2.1]octane-8-carboxylate] | 50 to 1000 | < 50 | < 50 | < 50 | 1000 to 10000 | > 10000 | 
3 | CC(=O)N1[C@@H]2CC[C@H]1[C@H](C(=O)NO)N(S(=O)(=O)c1ccc(Oc3ccc(OC(C)C)cc3)nc1)C2 [Example 58, (1S,2R,5R)-8-acetyl-N-hydroxy-3-((6-(4-isopropoxyphenoxy)-pyridin-3-yl)-sulfonyl)-3,8-diazabicyclo-[3.2.1]octane-2-carboxamide] | 1000 to 10000 | < 50 | < 50 | < 50 | > 10000 | > 10000 | 
4 | CC(C)C(=O)N1[C@@H]2CC[C@H]1[C@H](C(=O)NO)N(S(=O)(=O)c1ccc(Oc3ccc(OC(F)(F)F)cc3)nc1)C2 [Example 56, (1S,2R,5R)-N-hydroxy-8-isobutyry1-3-((6-(4-(trifluoro-methoxy)phenoxy)-pyridin-3-yl)-sulfonyl)-3,8-diazabicyclo-[3.2.1]octane-2-carboxamide] | > 10000 | < 50 | < 50 | < 50 | 1000 to 10000 | > 10000 | 
5 | COc1ccc(Oc2ccc(S(=O)(=O)N3C[C@H]4CC[C@@H]([C@@H]3C(=O)NO)N4C(C)=O)cn2)cc1F [Example 63, (1S,2R,5R)-8-acetyl-3-((6-(3-fluoro-4-methoxyphenoxy)-pyridin-3-yl)-sulfonyl)-N-hydroxy-3,8-diazabicyclo[3.2.1]-octane-2-carboxamide] | 1000 to 10000 | < 50 | < 50 | < 50 | 1000 to 10000 | 1000 to 10000 | 
6 | CC(=O)N1[C@@H]2CC[C@H]1[C@H](C(=O)NO)N(S(=O)(=O)c1ccc(Oc3ccc(OCC(F)(F)F)cc3)nc1)C2 [Example 62, (1S,2R,5R)-8-acetyl-N-hydroxy-3-((6-(4-(2,2,2-trifluoro-ethoxy)phenoxy)-pyridin-3-yl)-sulfonyl)-3,8-diazabicyclo[3.2.1]-octane-2-carboxamide] | 1000 to 10000 | < 50 | < 50 | < 50 | > 10000 | > 10000 | 
7 | COCCOC(=O)N1[C@@H]2CC[C@H]1[C@H](C(=O)NO)N(S(=O)(=O)N1CCC(Oc3ccc(F)cc3)CC1)C2 [Example 45, 2-methoxyethyl (1S,2R,5R)-3-((4-(4-fluoro-phenoxy)-piperidin-1-yl)-sulfonyl)-2-(hydroxy-carbamoyl)-3,8-diazabicyclo-[3.2.1]octane-8-carboxylate] | 50 to 1000 | < 50 | < 50 | < 50 | 50 to 1000 | 1000 to 10000 | 
8 | COCCOC(=O)N1[C@@H]2CC[C@H]1[C@H](C(=O)NO)N(S(=O)(=O)c1ccc(Oc3ccc(F)c(F)c3)nc1)C2 [Example 22, 2-methoxyethyl (1S,2R,5R)-3-((6-(3,4-difluoro-phenoxy)pyridin-3-yl)sulfonyl)-2-(hydroxycarbamoyl)-3,8-diazabicyclo-[3.2.1]octane-8-carboxylate] | 50 to 1000 | < 50 | < 50 | < 50 | 50 to 1000 | > 10000 | 
9 | CCOC(=O)N1[C@@H]2CC[C@H]1[C@H](C(=O)NO)N(S(=O)(=O)c1ccc(Oc3ccc(F)cc3)nc1)C2 [Example 65, ethyl (1S,2R,5R)-3-((6-(4-fluorophenoxy)pyridin-3-yl)sulfonyl)-2-(hydroxycarbamoyl)-3,8-diazabicyclo[3.2.1]octane-8-carboxylate] | 50 to 1000 | < 50 | < 50 | < 50 | 1000 to 10000 | > 10000 | 
10 | COCCOC(=O)N1[C@@H]2CC[C@H]1[C@H](C(=O)NO)N(S(=O)(=O)N1CCC(Oc3ccc(Cl)cc3)CC1)C2 [Example 44, (1S,2R,5R)-2-methoxyethyl 3-((4-(4-chlorophenoxy)piperidin-1-yl)sulfonyl)-2-(hydroxycarbamoyl)-3,8-diazabicyclo[3.2.1]octane-8-carboxylate] | 50 to 1000 | < 50 | < 50 | < 50 | < 50 |  | 50 to 1000
11 | COCCOC(=O)N1[C@@H]2CC[C@H]1[C@H](C(=O)NO)N(S(=O)(=O)N1CCC(Oc3ccc(C(F)(F)F)cc3)CC1)C2 [Example 48, 2-methoxyethyl (1S,2R,5R)-2-(hydroxy-carbamoyl)-3-((4-(4-(trifluoromethyl)phenoxy)-piperidin-1-yl)-sulfonyl)-3,8-diazabicyclo-[3.2.1]octane-8-carboxylate] | 1000 to 10000 | < 50 | < 50 | < 50 | < 50 |  | 50 to 1000
